Experimental data as given in patent US8993585B2, “Cyclic amine substituted pyrimidinediamines as PKC inhibitors” (Rigel Pharmaceuticals, Inc., priority 2007, dated 2015).

Tests used:
PKC theta = target: T1, PKC theta (Homo sapiens, UniProt Q04759); test: PKC assay, fluorescence polarization (Example 2), PKC theta; type: biochemical; conditions: 5 μM ATP
T1 construct: purchased Upstate Biotechnologies, Temecula, CA 14-444
Method in brief: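 Phosphorylated peptide product detected by fluorescence polarization, with EDTA quench plus peptide tracer and antibody. Reaction in 20 mM HEPES pH 7.4, 5 mM MgCl2, 0.2 mM CaCl2, 1 mM DTT, 0.02% Brij-35, phosphatidylserine and dioleoyl-sn-glycerol, with 5 μM ATP and 5 μM peptide. Started with enzyme, 20 min at room temperature.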

PKC epsilon = target: T2, PKC epsilon (Homo sapiens, UniProt Q02156); test: PKC assay, fluorescence polarization (Example 2), PKC epsilon; type: biochemical; conditions: 5 μM ATP
T2 construct: purchased Upstate Biotechnologies, Temecula, CA 14-518
T2 sequence (Q02156 1-737): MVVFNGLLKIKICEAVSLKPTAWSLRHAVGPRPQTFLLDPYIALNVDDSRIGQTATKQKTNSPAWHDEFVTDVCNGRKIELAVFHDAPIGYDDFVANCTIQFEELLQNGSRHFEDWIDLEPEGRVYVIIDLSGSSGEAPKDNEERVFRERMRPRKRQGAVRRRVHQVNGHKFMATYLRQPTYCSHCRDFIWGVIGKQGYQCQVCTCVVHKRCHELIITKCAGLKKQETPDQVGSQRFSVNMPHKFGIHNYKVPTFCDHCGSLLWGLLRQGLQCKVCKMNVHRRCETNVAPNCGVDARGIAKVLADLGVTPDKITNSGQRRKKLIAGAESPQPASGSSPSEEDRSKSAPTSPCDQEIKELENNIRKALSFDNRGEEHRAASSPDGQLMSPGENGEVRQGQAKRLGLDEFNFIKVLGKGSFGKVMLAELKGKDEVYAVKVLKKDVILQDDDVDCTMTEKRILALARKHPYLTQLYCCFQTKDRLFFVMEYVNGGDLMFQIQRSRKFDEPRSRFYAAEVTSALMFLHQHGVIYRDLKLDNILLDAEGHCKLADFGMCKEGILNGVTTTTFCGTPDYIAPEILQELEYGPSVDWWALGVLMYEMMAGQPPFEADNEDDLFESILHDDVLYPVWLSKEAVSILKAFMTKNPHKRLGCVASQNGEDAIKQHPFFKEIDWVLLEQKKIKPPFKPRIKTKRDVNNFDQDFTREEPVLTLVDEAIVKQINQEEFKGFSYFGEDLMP
Description: (§1) The inhibition of PKC activity was measured by monitoring the production of phosphorylated peptide by fluorescence polarization at different concentrations of the inhibitor. Reactions were carried out in 96-well plate format with a total volume of 20 μL containing 20 mM HEPES, pH 7.4, 5 mM MgCl2, 0.2 mM CaCl2, 1 mM DTT, 0.02% Brij-35, 0.1 mg/mL phosphatidylserine, 0.02 mg/mL dioleoyl-sn-glycerol and 5 μM each of ATP and the peptide substrate. Compounds were first diluted serially in DMSO and then transferred to a solution containing the above concentrations of HEPES, MgCl2, CaCl2, DTT, and Brij-35 to yield 5× compound solutions in 2% DMSO, which was then added to the reaction solution. Reactions were initiated by the addition of PKC at a typical concentration as described in Table VI, and then allowed to incubate at room temperature for 20 min. At the end of this time, a combination of quench (EDTA) and detection (peptide tracer and antibody) reagents was added using the protocol of Invitrogen P2748.

Human primary T cells = test: IL-2 ELISA, Human Primary T Cell, Anti-CD3+CD28+ (Example 3); type: cell-based; conditions: anti-CD3+CD28 stimulation
Method in brief: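 IL-2 was read by ELISA after stimulation on wells pre-coated with 1 ug/ml αCD3 and 5 μg/ml αCD28. Before this, 100,000 human primary T cells per well spent 1 h at 37 °C with test compound in Yssel's medium. The counter-screen replaced antibody stimulation with PMA (0.5 ng/ml final) and ionomycin (0.1 uM final).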

PKC mu = target: T3, PKC mu (Homo sapiens, UniProt Q15139); test: PKC assay, fluorescence polarization (Example 2), PKC mu; type: biochemical; conditions: 5 μM ATP
T3 sequence (Q15139 1-912): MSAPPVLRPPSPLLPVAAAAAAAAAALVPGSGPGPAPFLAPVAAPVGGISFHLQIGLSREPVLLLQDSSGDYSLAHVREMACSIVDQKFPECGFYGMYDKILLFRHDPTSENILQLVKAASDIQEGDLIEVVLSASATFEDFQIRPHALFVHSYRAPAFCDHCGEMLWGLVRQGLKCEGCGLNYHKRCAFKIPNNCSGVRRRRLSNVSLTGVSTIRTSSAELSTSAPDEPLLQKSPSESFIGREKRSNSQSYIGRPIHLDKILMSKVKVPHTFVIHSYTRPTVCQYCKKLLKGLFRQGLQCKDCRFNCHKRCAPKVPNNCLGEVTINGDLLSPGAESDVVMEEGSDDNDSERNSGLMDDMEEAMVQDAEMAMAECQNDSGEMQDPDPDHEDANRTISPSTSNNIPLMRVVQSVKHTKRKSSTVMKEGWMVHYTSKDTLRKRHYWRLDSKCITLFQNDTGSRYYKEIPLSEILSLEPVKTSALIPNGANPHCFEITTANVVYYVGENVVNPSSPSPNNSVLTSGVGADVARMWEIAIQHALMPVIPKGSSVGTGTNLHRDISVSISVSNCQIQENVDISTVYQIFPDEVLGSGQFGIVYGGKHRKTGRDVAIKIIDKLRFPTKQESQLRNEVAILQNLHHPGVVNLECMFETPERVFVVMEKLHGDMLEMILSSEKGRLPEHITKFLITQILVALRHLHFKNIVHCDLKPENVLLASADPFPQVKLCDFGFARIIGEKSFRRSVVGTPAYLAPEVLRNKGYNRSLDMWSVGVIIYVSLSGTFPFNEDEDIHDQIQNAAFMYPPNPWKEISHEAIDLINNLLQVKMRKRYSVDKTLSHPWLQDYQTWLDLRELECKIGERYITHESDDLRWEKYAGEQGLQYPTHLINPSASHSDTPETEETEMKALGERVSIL
Description: as §1, with “P2748. After a 30 min. period of incubation, the amount of phosphorylated peptide generated was measured by fluorescence polarization (Ex=485 nm, Em=535 nm) using a Tecan Polarian instrument.” for “P2748.”

T1 sequence (Q04759 whole entry): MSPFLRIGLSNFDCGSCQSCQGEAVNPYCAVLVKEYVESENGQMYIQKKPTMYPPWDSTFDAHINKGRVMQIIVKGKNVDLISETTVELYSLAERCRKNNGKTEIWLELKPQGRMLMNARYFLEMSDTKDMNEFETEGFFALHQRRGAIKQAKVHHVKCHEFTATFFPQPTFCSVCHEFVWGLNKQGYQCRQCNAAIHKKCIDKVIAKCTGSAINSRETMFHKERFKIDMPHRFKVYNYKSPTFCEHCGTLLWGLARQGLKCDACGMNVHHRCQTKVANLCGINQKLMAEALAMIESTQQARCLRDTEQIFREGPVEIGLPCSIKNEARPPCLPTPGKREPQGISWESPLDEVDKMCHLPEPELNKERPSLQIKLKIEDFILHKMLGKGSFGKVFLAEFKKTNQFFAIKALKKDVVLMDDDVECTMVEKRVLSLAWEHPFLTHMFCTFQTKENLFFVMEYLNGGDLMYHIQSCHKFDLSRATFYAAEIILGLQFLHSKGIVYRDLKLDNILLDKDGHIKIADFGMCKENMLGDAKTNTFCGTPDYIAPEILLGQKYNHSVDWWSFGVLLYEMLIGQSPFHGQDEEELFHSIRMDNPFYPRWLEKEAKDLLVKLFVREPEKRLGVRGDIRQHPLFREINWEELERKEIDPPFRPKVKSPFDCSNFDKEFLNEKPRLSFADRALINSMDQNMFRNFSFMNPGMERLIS

Structure (SMILES)	IC50 (PKC theta)	IC50 (PKC epsilon)	IC50 (Human primary T cells; Homo sapiens, T-cell, 24 h)	IC50 (PKC mu)	IC50 (Human primary T cells; 24 hours)
CCN1C(=O)C(F)(F)Oc2cc(Nc3ncc(F)c(NC4CC(C)(C)N(C)C(C)(C)C4)n3)cnc21 [II-27]	3.88 nM	65.8 nM	210 nM	–	–
CN1C(C)(C)CC(Nc2nc(Nc3ccc(F)c(C#N)c3)ncc2Cl)CC1(C)C [Compound I-166]	4.26 nM	198 nM	281 nM	–	–
Cc1ccc(Nc2ncc(F)c(NC3CC(C)(C)N(C)C(C)(C)C3)n2)cc1-c1ccncc1 [Compound I-187]	4.92 nM	51 nM	305 nM	–	–
CCN1C(=O)C(C)(C)Oc2cc(Nc3ncc(C)c(NC4CC(C)(C)N(C)C(C)(C)C4)n3)ccc21 [II-145]	28.1 nM	2690 nM	370 nM	–	–
COc1cc(Nc2ncc(F)c(NC3CC(C)(C)N(C)C(C)(C)C3)n2)cc(OC)c1 [Compound I-129]	4.19 nM	26.8 nM	214 nM	–	–
CN1C(=O)C(C)(C)Oc2cc(Nc3ncc(F)c(NC4CC(C)(C)N(C)C(C)(C)C4)n3)ccc21 [II-34]	15.7 nM	102 nM	224 nM	–	–
COc1ccc(Nc2ncc(F)c(NC3CC(C)(C)N(C)C(C)(C)C3)n2)cc1-n1c(C)ccc1C [Compound I-348]	3.66 nM	100 nM	172 nM	–	–
CN1CCN(c2ccc(Nc3ncc(C(F)(F)F)c(NC4CC(C)(C)N(C)C(C)(C)C4)n3)cc2C(F)(F)F)CC1 [Compound I-38]	16 nM	506 nM	196 nM	33 nM	–
COc1cc(Nc2ncc(Br)c(NC3CC(C)(C)N(C)C(C)(C)C3)n2)cc(OC)c1 [Compound I-422]	10.2 nM	165 nM	250 nM	–	–
COc1cc(Nc2ncc(C(F)(F)F)c(NC3CC(C)(C)N(C)C(C)(C)C3)n2)cc(OC)c1 [Compound I-363]	4.17 nM	54.8 nM	233 nM	–	–
CN1C(C)(C)CC(Nc2nc(Nc3ccc(N4CCCC4)c(C(F)(F)F)c3)ncc2F)CC1(C)C [Compound I-232]	63.4 nM	42 nM	894 nM	–	–
CN1C(C)(C)CC(Nc2nc(Nc3ccc(CN4CCOCC4)c(C#N)c3)ncc2F)CC1(C)C [Compound I-450]	2.5 nM	9 nM	–	–	260 nM
Cc1cc(Nc2ncc(F)c(NC3CC(C)(C)N(C)C(C)(C)C3)n2)ccc1-c1cccnc1 [Compound I-121]	23.7 nM	15.8 nM	268 nM	–	–
CCN1C(=O)C(C)(C)Oc2cc(Nc3ncc(F)c(NC4CC(C)(C)N(C)C(C)(C)C4)n3)ccc21 [II-35]	8.94 nM	159 nM	142 nM	–	–
CN1C(C)(C)CC(Nc2nc(Nc3cccc(OC(F)(F)F)c3)ncc2F)CC1(C)C [Compound I-223]	31.7 nM	119 nM	184 nM	–	–
CN1C(C)(C)CC(Nc2nc(Nc3ccc(-c4cccnc4)c(C(F)(F)F)c3)ncc2F)CC1(C)C [Compound I-112]	8.91 nM	25.6 nM	73.3 nM	–	–
CN1CCN(c2ncc(Nc3ncc(F)c(NC4CC(C)(C)N(C)C(C)(C)C4)n3)cc2C(F)(F)F)CC1 [Compound I-273]	3.34 nM	4.87 nM	–	–	217 nM

Second part, led by results:

IC50 (PKC theta)	IC50 (PKC epsilon)	IC50 (Human primary T cells; Homo sapiens, T-cell, 24 h)	IC50 (PKC mu)	Structure (SMILES)	IC50 (Human primary T cells; 24 hours)
2.72 nM	32.7 nM	120 nM	–	Cc1ccc(Nc2ncc(Cl)c(NC3CC(C)(C)N(C)C(C)(C)C3)n2)cc1C#N [Compound I-168]	–
2.75 nM	13.4 nM	110 nM	–	CCN1CCN(c2ccc(Nc3ncc(F)c(NC4CC(C)(C)N(C)C(C)(C)C4)n3)cc2Cl)CC1 [Compound I-248]	–
3.37 nM	9.94 nM	117 nM	–	CCN1CCN(c2ccc(Nc3ncc(F)c(NC4CC(C)(C)N(C)C(C)(C)C4)n3)cc2C(F)(F)F)CC1 [Compound I-246]	–
0.5 nM	13 nM	60 nM	–	CCOc1ccc(Nc2ncc(F)c(NC3CC(C)(C)NC(C)(C)C3)n2)cc1-n1nnnc1CC [Compound I-415]	–
1.3 nM	8 nM	70 nM	–	Cc1ccc(Nc2ncc(F)c(NC3CC(C)(C)NC(C)(C)C3)n2)cc1-n1cnnn1 [Compound I-455]	–
2.88 nM	9.58 nM	135 nM	–	CN1C(C)(C)CC(Nc2nc(Nc3ccc(N4CCSCC4)c(C#N)c3)ncc2F)CC1(C)C [Compound I-199]	–
0.4 nM	60 nM	30 nM	–	CCOc1ccc(Nc2ncc(C#N)c(NC3CC(C)(C)N(C)C(C)(C)C3)n2)cc1-n1nnnc1CC [Compound I-460]	–
3.3 nM	13 nM	80 nM	–	CSc1nnnn1-c1cccc(Nc2ncc(F)c(NC3CC(C)(C)NC(C)(C)C3)n2)c1 [Compound I-416]	–
1.8 nM	179 nM	103 nM	–	CCN1C(=O)C(C)(C)Oc2cc(Nc3ncc(C#N)c(NC4CC(C)(C)N(C)C(C)(C)C4)n3)ccc21 [II-45]	–
0.5 nM	202 nM	80 nM	–	CCN1C(=O)C(C)(C)Oc2cc(Nc3ncc(Br)c(NC4CC(C)(C)N(C)C(C)(C)C4)n3)ccc21 [II-128]	–
3.41 nM	589 nM	161 nM	–	COc1ccc(Nc2ncc(C(F)(F)F)c(NC3CC(C)(C)N(C)C(C)(C)C3)n2)cc1OC(F)F [Compound I-350]	–
0.8 nM	50 nM	230 nM	–	Cc1ccc(Nc2ncc(C#N)c(NC3CC(C)(C)NC(C)(C)C3)n2)cc1-n1cnnn1 [Compound I-461]	–
